Experimental data as given in article PMC11564732, “Synthesis and preliminary cytotoxicity evaluation of water soluble pentacyclic triterpenoid phosphonates” (Scientific Reports, 2024).
Converted amounts (≈) assume the structure as drawn.

Experiments:
[1] = Water solubility determination by quantitative 1H-NMR in D2O; format: physicochemical; details: D2O adjusted with NaOD, aqueous buffer, thermodynamic from solid; qNMR in D2O, pH 8.0-8.5 (NaOD), room temperature, potassium hydrogen phthalate external standard
Source text: The obtained PCT-derived sodium phosphonates were subjected to water solubility tests (Table 3). For this purpose, we used a quantitative ^1H-NMR approach in D2O, using potassium hydrogen phthalate as an external standard (for experimental details see Supporting Information). The presence of the basic forms of phosphonates[80] was ensured by the careful addition of NaOD, maintaining pH 8.0–8.5 during the quantification, which is 2–3 units higher than the pKa of phosphonic acid disalt. […] This is by at least two to three orders of magnitude higher than the reported solubilities of the parent natural triterpenic acids. […] Indeed, phosphonic acids are more acidic and easier ionizable than carboxylic acids. This ionic character helps to increase the aqueous solubility as exemplified by here described compounds.
Water solubility determination
To suspension of PCT phosphonate sample (10 mg) in D2O (500 µL) 0.8% solution of NaOD in D2O was added dropwise until pH = 8-8.5 (<100 µL). Obtained suspension was sonified in ultrasonic bath for 10 min. Undissolved particles were separated by centrifugation. Clear D2O solution was carefully transferred to NMR tube equipped with external standard vial.
Formula (1) was used to determine the solubility of PCT sample in the D2O.
[…]
SolPCT - solubility of PCT sample in D2O at room temperature (mg/mL)
IPCT - integral value of PCT signal of choice
Ist - integral value of external standard signal of choice
NPCT - number of integrated protons of PCT
Nst - number of integrated protons of external standard
V - volume of used D2O (mL) mst - mass of external standard (mg)
Mbet - molecular weight of PCT (g•mol−1)
Mst - molecular weight of external standard - potassium hydrogen phthalate (204.22 […]
Wst - assay of the external standard (99.5 %)

[2] = test system: mouse-derived preosteoblast cell line MC3T3-E1; experiment: Cytotoxicity evaluation, relative cell metabolic activity (CellTiter-Blue), MC3T3-E1; format: cell-based; details: 24 h, mean ± SD; for viability at 10 µM / viability at 25 µM / viability at 50 µM: Mus musculus, read-out: Relative metabolic activity of MC3T3-E1 cells; for viability at 10 µM: MC3T3-E1, 10 µM; for viability at 25 µM: MC3T3-E1, 25 µM; for viability at 50 µM: MC3T3-E1, 50 µM
Procedure: (§1) All target compounds were studied to determine their cytotoxic activity at various concentrations of each compound (10–50 µM) against human-derived osteosarcoma cell line MG-63 (ATCC, CRL-1427) and mouse-derived preosteoblast cell line MC3T3-E1 (ATCC, CRL-2593) (Table 4 and Figures S1-S4 in the Supporting Information). For the comparison, naturally occurring betulinic, oleanolic (1b) and ursolic (1c) acids as well as their 3-oxo analogs 2a-c and doxorubicin, were also subjected to the cytotoxicity tests.
(§2) Cytotoxicity of betulinic acid, ursolic acid and oleanolic acid derivatives was evaluated using human-derived osteosarcoma cell line MG63 (ATCC, CRL-1427) and mouse-derived preosteoblast cell line MC3T3-E1 (ATCC CRL-2593). Before conducting the experiments, both cell lines were continuously cultured according to the ATCC product sheet instructions. Briefly, both cell lines were expanded in α-MEM medium supplemented with 10% FBS and 1% pen-strep and maintained at 37 °C in a humidified atmosphere with 5% CO2.
(§3) Each cell line was plated at a concentration of 1 × 10^4 cells/well in 96-well plate. The plates were incubated for 24 h to allow cell attachment and growth. Bioactive substances were solubilized in methanol prior further dilution in cell culture media. Following the cell incubation period, the culture media was removed and the dilutions of active substance (10, 25 and 50 µM) in cell culture media were added. The culture medium only and its dilutions with methanol solution respective to the bioactive substance concentrations were used as the controls. […] Cells were treated with bioactive substance solutions for 24 h. After 24 h incubation, relative cell metabolic activity was assessed using CellTiter-Blue® (CTB) analysis (Promega, JAV). […] was measured at 590 nm using microplate reader (Infinite® 200 PRO, Tecan, USA). The relative cell metabolic activity was calculated for each bioactive substance concentration as well as for the controls. […] Statistically significant differences between sample groups are assessed using a one-way ANOVA test and then corrected using the Šídák multiple comparison test. Statistically significant differences were considered to be those with a P-values less than 0.05 (p < 0.05).
as §2, with “10 %” for “10%”, “1 %” for “1%”, “5 %” for “5%”
(§4) […]

[3] = test system: human-derived osteosarcoma cell line MG-63; experiment: Cytotoxicity evaluation, relative cell metabolic activity (CellTiter-Blue), MG-63; format: cell-based; details: 24 h, mean ± SD; for viability at 10 µM / viability at 25 µM / viability at 50 µM: Homo sapiens, read-out: Relative metabolic activity of MG-63 cells; for viability at 10 µM: MG-63, 10 µM; for viability at 25 µM: MG-63, 25 µM; for viability at 50 µM: MG-63, 50 µM
Procedure: as §1, §2, §3
as §2, with “10 %” for “10%”, “1 %” for “1%”, “5 %” for “5%”
as §4

[4] = cited from earlier work

Row | Compound | solubility at 10 min [1] [µg/mL] | viability at 10 µM [2] [%] | viability at 25 µM [2] [%] | viability at 50 µM [2] [%] | viability at 10 µM [3] [%] | viability at 25 µM [3] [%] | viability at 50 µM [3] [%] | Solubility in distilled water ([4]; distilled water) [µg/mL] | Aqueous solubility at neutral pH [4] [µg/mL] | Solubility in sodium phosphate solution ([4]; pH 11.4, sodium phosphate solution) [µg/mL] | Aqueous solubility at pH 11.8 [4] [µg/mL] | Relative metabolic activity of MC3T3-E1 cells ([2]; 10 µM) | Relative metabolic activity of MC3T3-E1 cells ([2]; 25 µM) | Relative metabolic activity of MC3T3-E1 cells ([2]; 50 µM) | Relative metabolic activity of MG-63 cells ([3]; 10 µM) | Relative metabolic activity of MG-63 cells ([3]; 25 µM) | Relative metabolic activity of MG-63 cells ([3]; 50 µM) | Aqueous solubility (in words) ([4]; compared with oleanolic and betulinic acids)
1 | CC1CCC2(C(=O)OCP(=O)([O-])[O-])CCC3(C)C(=CCC4C5(C)CCC(=O)C(C)(C)C5CCC43C)C2C1C.[Na+].[Na+] (stereo not drawn) [7c] | 26000 | 91 ± 6 | 90 ± 3 | 94 ± 5 | 96 ± 4 | 98 ± 4 | 112 ± 3 | – | – | – | – | – | – | – | – | – | – | –
2 | C=C(C)C1CCC2(C(=O)OCP(=O)([O-])[O-])CCC3(C)C(CCC4C5(C)CCC(O)C(C)(C)C5CCC43C)C12.[Na+].[Na+] (stereo not drawn) [8a] | 3000 | 108 ± 5 | 119 ± 4 | 101 ± 5 | 158 ± 5 | 124 ± 25 | 159 ± 17 | – | – | – | – | – | – | – | – | – | – | –
3 | C=C(C)[C@@H]1CC[C@]2(C(=O)O)CC[C@]3(C)[C@H](CC[C@@H]4[C@@]5(C)CCC(=O)C(C)(C)[C@@H]5CC[C@]43C)[C@@H]12 [Betulonic acid (2a), Betulonic acid] | – | 139 ± 6 | 170 ± 5 | 122 ± 1 | 114 ± 2 | 96 ± 4 | 88 ± 8 | – | – | – | – | – | – | – | – | – | – | –
4 | CC1(C)CCC2(C(=O)OCP(=O)([O-])[O-])CCC3(C)C(=CCC4C5(C)CCC(=O)C(C)(C)C5CCC43C)C2C1.[Na+].[Na+] (stereo not drawn) [7b] | 8000 | 131 ± 8 | 150 ± 4 | 104 ± 5 | 113 ± 8 | 132 ± 5 | 119 ± 5 | – | – | – | – | – | – | – | – | – | – | –
5 | C=C(C)[C@@H]1CC[C@]2(C(=O)O)CC[C@]3(C)[C@H](CC[C@@H]4[C@@]5(C)CC[C@H](O)C(C)(C)[C@@H]5CC[C@]43C)[C@@H]12 [Betulinic acid] | – | 76 ± 7 | 56 ± 4 | 97 ± 7 | 74 ± 16 | 91 ± 14 | 112 ± 8 | 0.021 (≈ 0.046 µM) | < 0.1 | 40.1 (≈ 87.8 µM) | 42.1 | – | – | – | – | – | – | –
6 | C[C@H]1[C@H](C)CC[C@]2(C(=O)O)CC[C@]3(C)C(=CC[C@@H]4[C@@]5(C)CCC(=O)C(C)(C)[C@@H]5CC[C@]43C)[C@H]12 [Ursonic acid (2c), Ursonic acid] | – | 74 ± 2 | 107 ± 7 | 72 ± 9 | 76 ± 8 | 67 ± 4 | 67 ± 4 | – | – | – | – | – | – | – | – | – | – | –
7 | CC1(C)CC[C@]2(C(=O)O)CC[C@]3(C)C(=CC[C@@H]4[C@@]5(C)CCC(=O)C(C)(C)[C@@H]5CC[C@]43C)[C@@H]2C1 [Oleanonic acid (2b), Oleanonic acid] | – | 110 ± 1 | 99 ± 5 | 49 ± 12 | 151 ± 8 | 160 ± 3 | 103 ± 18 | – | – | – | – | – | – | – | – | – | – | –
8 | CC1(C)CC[C@]2(C(=O)O)CC[C@]3(C)C(=CC[C@@H]4[C@@]5(C)CC[C@H](O)C(C)(C)[C@@H]5CC[C@]43C)[C@@H]2C1 [Oleanolic acid (1b), Oleanolic acid] | – | 104 ± 7 | 97 ± 8 | 96 ± 5 | 77 ± 14 | 158 ± 13 | 129 ± 11 | – | < 0.1 | – | 99.5 | – | – | – | – | – | – | –
9 | C=C(C)[C@@H]1CC[C@]2(COCP(=O)([O-])[O-])CC[C@]3(C)[C@H](CC[C@@H]4[C@@]5(C)CC[C@H](OCP(=O)([O-])[O-])C(C)(C)[C@@H]5CC[C@]43C)[C@@H]12.[Na+].[Na+].[Na+].[Na+] [compound 12, Sodium (lup-20(29)-en-(3 S)-3,28-diylbis(oxymethylene))bis(phosphonate)] | 3000 | 90 ± 7 | 93 ± 6 | 92 ± 4 | 97 ± 8 | 89 ± 5 | 94 ± 4 | – | – | – | – | – | – | – | – | – | – | –
10 | COc1cccc2c1C(=O)c1c(O)c3c(c(O)c1C2=O)C[C@@](O)(C(=O)CO)C[C@@H]3O[C@H]1C[C@H](N)[C@H](O)[C@H](C)O1 [Doxorubicin] | – | 72 ± 7 | 60 ± 3 | 53 ± 3 | 41 ± 2 | 19 ± 1 | 16 ± 2 | – | – | – | – | – | – | – | – | – | – | –
11 | CC1(C)CCC2(C(=O)OCP(=O)([O-])[O-])CCC3(C)C(=CCC4C5(C)CCC(O)C(C)(C)C5CCC43C)C2C1.[Na+].[Na+] (stereo not drawn) [8b] | 7000 | – | – | – | – | – | – | – | – | – | – | – | – | – | – | – | – | –
12 | Sodium (3-oxo-(17R)-17-28-norlup-20(29)-en)-2-oxoethyl-phosphonate [7a] | – | – | – | – | – | – | – | – | – | – | – | 1.41 ± 0.01 | 1.27 ± 0.05 | 1.13 ± 0.03 | 1.10 ± 0.04 | 1.30 ± 0.06 | 1.09 ± 0.04 | –
13 | C[C@H]1[C@H](C)CC[C@]2(C(=O)O)CC[C@]3(C)C(=CC[C@@H]4[C@@]5(C)CC[C@H](O)C(C)(C)[C@@H]5CC[C@]43C)[C@H]12 [Ursolic acid (1c), Ursolic acid] | – | 106 ± 5 | 83 ± 5 | 99 ± 8 | 66 ± 3 | 64 ± 3 | 28 ± 4 | – | – | – | – | – | – | – | – | – | – | similarly low aqueous solubility
